According to publication PMC10816625, “Targeting Alzheimer’s Disease: Evaluating the Efficacy of C-1 Functionalized N-Aryl-Tetrahydroisoquinolines as Cholinergic Enzyme Inhibitors and Promising Therapeutic Candidates” (International Journal of Molecular Sciences, 2024):
Entries after “also recorded” stand apart in the source; their conditions may differ.

System: not listed separately
Experiment: in vitro
Conditions: pig, PAMPA
Experimental: The assay was performed according to the method reported by Di et al. with slight modification. Commercial drugs, verapamil, and caffeine were used to validate the protocol. […] Each sample was analyzed with at least three independent experiments in three wells.

**Q.** Which Papp does the source give for Cn1c(=O)c2c(ncn2C)n(C)c1=O [Caffeine, reference compound] here?
**A.** 1.47 ×10⁻⁶ cm/s

**Q.** With COc1cc2c(cc1OC)C(CC(=O)c1ccccc1)N(c1ccccc1)CC2 (centres unmarked) [Compound 3c] as the compound, how does the Papp read?
**A.** 47.5 ×10⁻⁶ cm/s

Same assay, conditions: porcine polar brain lipids; UPLC quantification

**Q.** With COc1cc2c(cc1OC)C(CC(=O)c1ccccc1)N(c1ccccc1)CC2 (centres unmarked) [Compound 3c] as the compound, how does the “PAMPA-BBB Permeability Pe” value read?
**A.** successfully crossed the artificial blood−brain barrier; also recorded: able to cross the BBB

**Q.** With O=C(CCC1c2ccccc2CCN1c1ccccc1)c1ccccc1 (centres unmarked) [Compound 3f] as the compound, how does the “PAMPA-BBB Permeability Pe” value read?
**A.** impossible to be detected; also recorded: High hydrophobicity; it retained in the membrane

**Q.** For O=C(CCc1ccccc1)CCC1c2ccccc2CCN1c1ccccc1 (centres unmarked) [Compound 3i], which “PAMPA-BBB Permeability Pe” value is on record?
**A.** impossible to be detected; also recorded: High hydrophobicity; it retained in the membrane

Target: T1, BuChE (Equus caballus, UniProt P81908)
T1 construct: butyrylcholinesterase (BuChE) from horse serum (C1057); purchased Sigma-Aldrich C1057; host or cells: horse serum
Experiment: Trp fluorescence titration of BuChE
Assay type: binding
Conditions: 5 IU/mL BuChE
Experimental: (§1) Fluorescence titration studies were conducted using the Agilent Cary Eclipse fluorescence spectrophotometer. Fluorescence-quenching spectra were recorded within the wavelength range of 320–450 nm, with an excitation at 295 nm at room temperature. Excitation and emission slit widths were both set at 5 nm, and the scanning rate was fixed at 9600 nm/min. The concentration of enzymes was 5 IU/mL. The incubation time between each addition of THIQ aliquots was 6 min.

T1 sequence (P81908 whole entry): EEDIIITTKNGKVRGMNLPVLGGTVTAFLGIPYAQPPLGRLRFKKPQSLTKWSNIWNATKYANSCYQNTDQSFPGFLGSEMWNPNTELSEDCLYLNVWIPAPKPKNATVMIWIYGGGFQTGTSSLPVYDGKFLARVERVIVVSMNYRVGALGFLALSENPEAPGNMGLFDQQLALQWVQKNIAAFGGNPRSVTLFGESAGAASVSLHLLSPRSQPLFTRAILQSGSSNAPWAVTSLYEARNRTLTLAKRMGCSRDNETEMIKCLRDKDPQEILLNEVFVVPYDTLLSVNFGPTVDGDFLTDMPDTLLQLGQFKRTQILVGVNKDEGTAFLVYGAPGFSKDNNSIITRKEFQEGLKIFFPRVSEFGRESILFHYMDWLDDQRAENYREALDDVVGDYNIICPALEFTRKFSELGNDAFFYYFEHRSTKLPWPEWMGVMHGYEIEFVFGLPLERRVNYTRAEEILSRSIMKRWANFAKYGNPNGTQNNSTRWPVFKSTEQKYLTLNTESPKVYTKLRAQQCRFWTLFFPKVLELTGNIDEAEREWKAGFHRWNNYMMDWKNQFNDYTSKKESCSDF

**Q.** Which “Effect on Trp fluorescence of BuChE” value does the source give for O=C(CCc1ccccc1)CCC1c2ccccc2CCN1c1ccccc1 (centres unmarked) [Compound 3i] here?
**A.** fluorescence intensity of BuChE was increased

Target: T2, eqBuChE (Equus caballus, UniProt P81908)
T2 construct: butyrylcholinesterase (BuChE) from horse serum (C1057); purchased Sigma-Aldrich C1057; host or cells: horse serum
Experiment: biochemical
Conditions: Table 1; preincubation 6 min, incubation 6 min, 37 °C; mean ± SD; read-out: IC50 BuChE
Experimental: (§2) The abilities of synthesized 22 compounds to inhibit AChE and BuChE activity were determined following Ellman’s procedure using a Perkin Elmer Lambda 35 spectrophotometer with thermostated 1.00 cm quartz cells. AChE’s and BuChE’s stock solutions were diluted with 20 mM TRIS to give 1 unit per mL of enzymes’ activity. […] A 0.01 M DTNB solution was prepared with 0.1 M phosphate buffer (pH 7) containing 0.15% (w/v) sodium bicarbonate. A 0.1 M phosphate buffer (pH 8) was used for assay. pH was adjusted to 8.0 ± 0.1 by adding aliquots of concentrated HCl. Stock solutions (10 mM) of investigated compounds were prepared daily by dissolving solid compounds in DMSO. Diluted solutions were also prepared in DMSO.
(§3) Briefly, enzymes’ assays were prepared as follows. […] Thereafter, 20 μL of ASChI or BSChCI was added, after which the reaction was initiated. […] For the blank value, the addition of 20 μL of buffer replaced the enzyme solution while an addition of 7 μL of DMSO replaced the inhibitor solution. The control solution contained 7 μL of DMSO instead of the inhibitor. The screening test was performed at a 1 × 10^−5 M concentration, and the compounds with more than 50% of inhibition were further assayed using dilution series of up to eight increasing concentrations (10^−5 M to 10^−9 M). The inhibition potency was presented as the dependence on the relative enzyme activity (REA) as the function of the compound’s concentration. IC50 values were determined graphically from Hill curves using Origin 9 Microsoft Windows.

T2 sequence (P81908 whole entry): as above

**Q.** With c1ccc(N2CCc3ccccc3C2)cc1 [Compound 1a, N-phenyl-1,2,3,4-tetrahydroisoquinoline] as the compound, how does the IC50 read?
**A.** > 10 µM

**Q.** For CC(=O)CC1c2ccccc2CCN1c1ccccc1 (centres unmarked) [Compound 2a], which IC50 is on record?
**A.** > 10 µM

**Q.** For CC(=O)CC1c2ccccc2CCN1c1ccc(F)cc1 (centres unmarked) [Compound 2b], which IC50 is on record?
**A.** 8.9 ± 2.03 µM

**Q.** Which IC50 does the source give for COc1cc2c(cc1OC)C(CC(C)=O)N(c1ccccc1)CC2 (centres unmarked) [Compound 2c] here?
**A.** > 10 µM

**Q.** With COc1cc2c(cc1OC)C(CC(C)=O)N(c1ccc(F)cc1)CC2 (centres unmarked) [Compound 2d] as the compound, how does the IC50 read?
**A.** > 10 µM

**Q.** Which IC50 does the source give for O=C(CC1c2ccccc2CCN1c1ccccc1)c1ccccc1 (centres unmarked) [Compound 3a] here?
**A.** 8.26 ± 1.05 µM

**Q.** With COc1ccc(N2CCc3ccccc3C2CC(=O)c2ccccc2)cc1 (centres unmarked) [Compound 3b] as the compound, how does the IC50 read?
**A.** > 10 µM

**Q.** Which IC50 does the source give for COc1cc2c(cc1OC)C(CC(=O)c1ccccc1)N(c1ccccc1)CC2 (centres unmarked) [Compound 3c] here?
**A.** > 10 µM

**Q.** For O=C(CCC1c2ccccc2CCN1c1ccccc1)c1ccccc1 (centres unmarked) [Compound 3f], which IC50 is on record?
**A.** 6.28 ± 0.36 µM

**Q.** With O=C(CCc1ccccc1)CCC1c2ccccc2CCN1c1ccccc1 (centres unmarked) [Compound 3i] as the compound, how does the IC50 read?
**A.** 2.72 ± 0.2 µM

Target: T3, AChE (Electrophorus electricus, UniProt O42275)
T3 construct: purchased Sigma-Aldrich C3389
Experiment: Trp fluorescence-quenching titration of AChE
Assay type: binding
Conditions: 5 IU/mL AChE
Experimental: as §1

T3 sequence (O42275 24-633): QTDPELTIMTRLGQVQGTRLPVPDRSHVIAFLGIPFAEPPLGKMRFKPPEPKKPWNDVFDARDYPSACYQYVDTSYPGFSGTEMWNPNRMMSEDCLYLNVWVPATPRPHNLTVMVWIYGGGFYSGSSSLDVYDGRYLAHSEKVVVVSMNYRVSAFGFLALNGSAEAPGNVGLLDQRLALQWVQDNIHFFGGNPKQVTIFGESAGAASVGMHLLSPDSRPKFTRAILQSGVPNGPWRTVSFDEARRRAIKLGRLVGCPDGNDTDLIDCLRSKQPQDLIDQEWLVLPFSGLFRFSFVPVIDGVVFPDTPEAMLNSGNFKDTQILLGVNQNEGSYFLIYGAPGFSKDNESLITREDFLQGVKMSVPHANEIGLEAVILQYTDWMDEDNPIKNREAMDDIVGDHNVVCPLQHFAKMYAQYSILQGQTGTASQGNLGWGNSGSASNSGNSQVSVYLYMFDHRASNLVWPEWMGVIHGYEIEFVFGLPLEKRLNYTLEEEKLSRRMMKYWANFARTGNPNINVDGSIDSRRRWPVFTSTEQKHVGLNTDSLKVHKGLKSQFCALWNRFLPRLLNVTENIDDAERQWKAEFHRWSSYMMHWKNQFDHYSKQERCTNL

**Q.** For COc1cc2c(cc1OC)C(CC(=O)c1ccccc1)N(c1ccccc1)CC2 (centres unmarked) [Compound 3c], which “Quenching of Trp fluorescence of AChE” value is on record?
**A.** no quenching of Trp fluorescence

**Q.** For O=C(CCc1ccccc1)CCC1c2ccccc2CCN1c1ccccc1 (centres unmarked) [Compound 3i], which “Quenching of Trp fluorescence of AChE” value is on record?
**A.** quenching of Trp fluorescence was observed

**Q.** And the “n (number of binding sites)” value?
**A.** 0.94 ± 0.04

Same assay, conditions: 5 IU/mL AChE, excitation 295 nm, room temperature

**Q.** With O=C(CCc1ccccc1)CCC1c2ccccc2CCN1c1ccccc1 (centres unmarked) [Compound 3i] as the compound, how does the Ksv read?
**A.** (6.96 ± 0.05) × 10^4 M^−1

**Q.** What about the “kq (bimolecular quenching constant)” value of the same compound?
**A.** (6.96 ± 0.05) × 10^14 M^−1s^−1

Target: T4, eeAChE (Electrophorus electricus, UniProt O42275)
T4 construct: purchased Sigma-Aldrich C3389
Experiment: biochemical
Assay type: biochemical
Conditions: 1 × 10^−5 M; preincubation 6 min, incubation 6 min, 37 °C
Experimental: as §2, §3

T4 sequence (O42275 24-633): as above

**Q.** For c1ccc(N2CCc3ccccc3C2)cc1 [Compound 1a, N-phenyl-1,2,3,4-tetrahydroisoquinoline], which “Residual Activity at 1 × 10^−5 M AChE” value is on record?
**A.** did not show inhibition potential

Same assay, conditions: IC50(BChE)/IC50(AChE)

**Q.** Which “Selectivity Index for AChE” value does the source give for CC(=O)CC1c2ccccc2CCN1c1ccc(F)cc1 (centres unmarked) [Compound 2b] here?
**A.** 1.63

**Q.** For O=C(CC1c2ccccc2CCN1c1ccccc1)c1ccccc1 (centres unmarked) [Compound 3a], which “Selectivity Index for AChE” value is on record?
**A.** 1.93

**Q.** Which “Selectivity Index for AChE” value does the source give for COc1cc2c(cc1OC)C(CC(=O)c1ccccc1)N(c1ccccc1)CC2 (centres unmarked) [Compound 3c] here?
**A.** >5

**Q.** With O=C(CCC1c2ccccc2CCN1c1ccccc1)c1ccccc1 (centres unmarked) [Compound 3f] as the compound, how does the “Selectivity Index for AChE” value read?
**A.** 2.59

**Q.** For O=C(CCc1ccccc1)CCC1c2ccccc2CCN1c1ccccc1 (centres unmarked) [Compound 3i], which “Selectivity Index for AChE” value is on record?
**A.** 2.45

Same assay, conditions: Table 1; preincubation 6 min, incubation 6 min, 37 °C; mean ± SD

**Q.** Which IC50 does the source give for c1ccc(N2CCc3ccccc3C2)cc1 [Compound 1a, N-phenyl-1,2,3,4-tetrahydroisoquinoline] here?
**A.** > 10 µM

**Q.** With CC(=O)CC1c2ccccc2CCN1c1ccccc1 (centres unmarked) [Compound 2a] as the compound, how does the IC50 read?
**A.** > 10 µM

**Q.** For CC(=O)CC1c2ccccc2CCN1c1ccc(F)cc1 (centres unmarked) [Compound 2b], which IC50 is on record?
**A.** 5.46 ± 0.58 µM

**Q.** Which IC50 does the source give for COc1cc2c(cc1OC)C(CC(C)=O)N(c1ccccc1)CC2 (centres unmarked) [Compound 2c] here?
**A.** 5.04 ± 0.28 µM

**Q.** For COc1cc2c(cc1OC)C(CC(C)=O)N(c1ccc(F)cc1)CC2 (centres unmarked) [Compound 2d], which IC50 is on record?
**A.** > 10 µM

**Q.** With O=C(CC1c2ccccc2CCN1c1ccccc1)c1ccccc1 (centres unmarked) [Compound 3a] as the compound, how does the IC50 read?
**A.** 4.29 ± 0.09 µM

**Q.** With COc1ccc(N2CCc3ccccc3C2CC(=O)c2ccccc2)cc1 (centres unmarked) [Compound 3b] as the compound, how does the IC50 read?
**A.** 9.05 ± 0.81 µM

**Q.** With COc1cc2c(cc1OC)C(CC(=O)c1ccccc1)N(c1ccccc1)CC2 (centres unmarked) [Compound 3c] as the compound, how does the IC50 read?
**A.** 1.95 ± 0.23 µM

**Q.** For O=C(CCC1c2ccccc2CCN1c1ccccc1)c1ccccc1 (centres unmarked) [Compound 3f], which IC50 is on record?
**A.** 2.42 ± 0.09 µM

**Q.** With O=C(CCc1ccccc1)CCC1c2ccccc2CCN1c1ccccc1 (centres unmarked) [Compound 3i] as the compound, how does the IC50 read?
**A.** 1.11 ± 0.04 µM

Same assay, conditions: compared to compound 2c

**Q.** With COc1cc2c(cc1OC)C(CC(=O)c1ccccc1)N(c1ccccc1)CC2 (centres unmarked) [Compound 3c] as the compound, how does the “fold increase in inhibitory activity towards AChE” value read?
**A.** 2.5 fold

Target: T1, BuChE
Experiment: Kinetic study of BuChE inhibition (Lineweaver-Burk)
Assay type: biochemical
Conditions: Lineweaver-Burk plot
Experimental: (§4) Kinetic studies of ChE enzymes were also performed using the above-mentioned modified Ellman’s method. The preincubation time was 6 min, while the incubation time was 2 min. The type of enzyme inhibition was justified by the Lineweaver–Burk plot (double reciprocal plot) for selected inhibitor concentrations, and substrate concentrations ranged from 0.01 to 1 mM. The kinetic parameters Km, Vmax, and Ki were determined. Graphs were plotted using Origin9 for Microsoft Windows.

**Q.** For O=C(CCc1ccccc1)CCC1c2ccccc2CCN1c1ccccc1 (centres unmarked) [Compound 3i], which “Type of Inhibition (BuChE)” value is on record?
**A.** mixed type of inhibition (non-competitive/uncompetitive); also recorded: Mix non-competitive/uncompetitive

Same assay, conditions: preincubation 6 min, incubation 2 min

**Q.** Which Ki does the source give for O=C(CCc1ccccc1)CCC1c2ccccc2CCN1c1ccccc1 (centres unmarked) [Compound 3i] here?
**A.** 1.04 ± 0.1 µM

Target: T3, AChE
Experiment: Kinetic study of AChE inhibition (Lineweaver-Burk)
Assay type: biochemical
Conditions: Lineweaver-Burk plot
Experimental: as §4

**Q.** With COc1cc2c(cc1OC)C(CC(=O)c1ccccc1)N(c1ccccc1)CC2 (centres unmarked) [Compound 3c] as the compound, how does the “Type of Inhibition (AChE)” value read?
**A.** Non-competitive

**Q.** For O=C(CCc1ccccc1)CCC1c2ccccc2CCN1c1ccccc1 (centres unmarked) [Compound 3i], which “Type of Inhibition (AChE)” value is on record?
**A.** Non-competitive

Same assay, conditions: preincubation 6 min, incubation 2 min

**Q.** For COc1cc2c(cc1OC)C(CC(=O)c1ccccc1)N(c1ccccc1)CC2 (centres unmarked) [Compound 3c], which Ki is on record?
**A.** 1.78 ± 0.1 µM

**Q.** Which Ki does the source give for O=C(CCc1ccccc1)CCC1c2ccccc2CCN1c1ccccc1 (centres unmarked) [Compound 3i] here?
**A.** 1.06 ± 0.01 µM

System: not listed separately
Experiment: logP determination by UPLC
Assay type: physicochemical
Conditions: reversed-phase ACQUITY UPLC BEH C18 column; UPLC method
Experimental: . The column used for logP determinations was ACQUITY UPLC BEH C18 column with the dimensions 1.7 μm × 100 mm × 2.1 mm (Waters). The measurements were performed in the isocratic mode. The eluent flow rate was 0.25 mL min^−1, and the injection volume was 5 μL. The mobile phase composition was a different percentage of acetonitrile and H2O (we ran a chromatogram for each compound with different eluent compositions and the acetonitrile fraction ranging from 64% to 91%). The wavelength of the optical detection was 256 nm, the retention times for every examined compound under certain experimental conditions were determined. At the beginning, the compound’s retention factor, k’, was determined for different percentages of acetonitrile in the mobile phases. The column’s dead time was determined by the injection of sodium bromide. After that, the retention factors for a pure aqueous eluent (log kw) were determined for the compounds with previously known logPo/w values as well as for the investigated compounds. […]

**Q.** For COc1cc2c(cc1OC)C(CC(=O)c1ccccc1)N(c1ccccc1)CC2 (centres unmarked) [Compound 3c], which chromatographic logP is on record?
**A.** 3.39

**Q.** With O=C(CCC1c2ccccc2CCN1c1ccccc1)c1ccccc1 (centres unmarked) [Compound 3f] as the compound, how does the chromatographic logP read?
**A.** 3.66

**Q.** Which chromatographic logP does the source give for O=C(CCc1ccccc1)CCC1c2ccccc2CCN1c1ccccc1 (centres unmarked) [Compound 3i] here?
**A.** 3.78
